From patent publication US10508104B2, “6-hydroxy-5-(phenyl/heteroarylsulfonyl)pyrimidin-4(1H)-one as APJ agonists” (Bristol-Myers Squibb Company, priority 2016, dated 2019)

Biological target: human APJ receptor (Homo sapiens (Human), UniProt P35414)
Experiment: Intracellular cAMP accumulation assay (APJ hcAMP, HTRF)
Assay type: cell-based
Conditions: HEK293 cells stably expressing human APJ receptor; inhibition of forskolin-mediated cAMP production; read-out: Human APJ cAMP EC50 Potency range
Method in brief: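 HEK293 cells stably expressing human APJ, 5,000 per well, incubated 30 min at rt with compound, […] and 2 μM forskolin. cAMP measured by HTRF against a cAMP standard curve as inhibition of forskolin-driven production. EC50 from variable-slope sigmoidal fit.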

Sequence of human APJ receptor (P35414 whole entry): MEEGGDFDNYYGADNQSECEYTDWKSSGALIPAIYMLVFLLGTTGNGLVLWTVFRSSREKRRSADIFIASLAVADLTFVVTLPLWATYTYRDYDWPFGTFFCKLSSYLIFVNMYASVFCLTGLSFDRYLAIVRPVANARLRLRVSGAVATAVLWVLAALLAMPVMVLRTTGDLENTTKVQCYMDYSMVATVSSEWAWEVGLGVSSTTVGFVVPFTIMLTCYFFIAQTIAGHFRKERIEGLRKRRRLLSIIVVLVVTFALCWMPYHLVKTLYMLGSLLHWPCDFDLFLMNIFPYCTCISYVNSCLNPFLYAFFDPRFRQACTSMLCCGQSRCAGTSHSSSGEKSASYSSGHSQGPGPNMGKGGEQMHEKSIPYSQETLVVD

Structure (SMILES)	EC50
CCCCc1nc(=O)c(S(=O)(=O)c2ccc(-c3ccccc3C(=O)NC3CC3)cc2)c(O)n1[C@@H](CC)c1cccc(C#N)c1 [Example 522, 4′-({2-butyl-1-[(1S)-1-(3-cyanophenyl)propyl]-6-hydroxy-4-oxo-1,4-dihydropyrimidin-5-yl}sulfonyl)-N-cyclopropyl-[1,1′-biphenyl]-2-carboxamide]	0.01 to 10 nM
CCCCc1nc(=O)c(S(=O)(=O)c2ccc(-c3cccc(C(=O)NC)c3)cc2)c(O)n1[C@@H](CC)c1cccc(C#N)c1 [Example 523, 4′-({2-butyl-1-[(1S)-1-(3-cyanophenyl)propyl]-6-hydroxy-4-oxo-1,4-dihydropyrimidin-5-yl}sulfonyl)-N-methyl-[1,1′-biphenyl]-3-carboxamide]	0.01 to 10 nM
CCCCc1nc(=O)c(S(=O)(=O)c2ccc(-c3cccc4c3C(=O)NC4)cc2)c(O)n1[C@H](c1cccc(C#N)c1)C1CC1 [Example 524, 3-[(S)-{2-butyl-6-hydroxy-4-oxo-5-[4-(3-oxo-2,3-dihydro-1H-isoindol-4-yl)benzenesulfonyl]-1,4-dihydropyrimidin-1-yl}(cyclopropyl)methyl] benzonitrile]	0.01 to 10 nM
CCCCc1nc(=O)c(S(=O)(=O)c2ccc(-c3ccc(C(N)=O)cc3F)cc2)c(O)n1[C@@H](CC)c1cccc(C#N)c1 [Example 525, 4′-({2-butyl-1-[(1S)-1-(3-cyanophenyl)propyl]-6-hydroxy-4-oxo-1,4-dihydropyrimidin-5-yl}sulfonyl)-2-fluoro-[1,1′-biphenyl]-4-carboxamide]	0.01 to 10 nM
CCCCc1nc(=O)c(S(=O)(=O)c2ccc(-c3ccnc(F)c3C)cc2)c(O)n1[C@@H](CC)c1ccnc(C#N)c1 [Example 526, 4-[(1S)-1-{2-butyl-5-[4-(2-fluoro-3-methylpyridin-4-yl)benzenesulfonyl]-6-hydroxy-4-oxo-1,4-dihydropyrimidin-1-yl}propyl]pyridine-2-carbonitrile]	0.01 to 10 nM
CCCCc1nc(=O)c(S(=O)(=O)c2ccc(-c3ccncc3C)cc2)c(O)n1[C@@H](CC)C1CCOCC1 [Example 527, 2-butyl-6-hydroxy-5-[4-(3-methylpyridin-4-yl)benzenesulfonyl]-1-[(1S)-1-(oxan-4-yl)propyl]-1,4-dihydropyrimidin-4-one]	0.01 to 10 nM
CCCCc1nc(=O)c(S(=O)(=O)c2ccc(-c3ccnc(F)c3C)cc2)c(O)n1[C@@H](CC)C1CCOCC1 [Example 528, 2-butyl-5-[4-(2-fluoro-3-methylpyridin-4-yl)benzenesulfonyl]-6-hydroxy-1-[(1S)-1-(oxan-4-yl)propyl]-1,4-dihydropyrimidin-4-one]	0.01 to 10 nM
CCCCc1nc(=O)c(S(=O)(=O)c2ccc(-c3cccc4c3C(=O)NC4)cc2)c(O)n1[C@@H](CC)c1cccc(C#N)c1 [Example 529, 3-[(1S)-1-{2-butyl-6-hydroxy-4-oxo-5-[4-(3-oxo-2,3-dihydro-1H-isoindol-4-yl)benzenesulfonyl]-1,4-dihydropyrimidin-1-yl}propyl]benzonitrile]	0.01 to 10 nM
CCCCc1nc(=O)c(S(=O)(=O)c2ccc(-c3ccccc3C(=O)NC)cc2)c(O)n1[C@H](c1cccc(C#N)c1)C1CC1 [Example 530, 4′-({2-butyl-1-[(S)-(3-cyanophenyl)(cyclopropyl)methyl]-6-hydroxy-4-oxo-1,4-dihydropyrimidin-5-yl}sulfonyl)-N-methyl-[1,1′-biphenyl]-2-carboxamide]	0.01 to 10 nM
CCCCc1nc(=O)c(S(=O)(=O)c2ccc(-c3cccc(C(C)(C)O)c3)cc2)c(O)n1[C@@H](CC)c1cccc(C#N)c1 [Example 531, 3-[(1S)-1-(2-buty1-6-hydroxy-5-{[3′-(2-hydroxypropan-2-yl)-[1,1′-biphenyl]-4-yl]sulfonyl}-4-oxo-1,4-dihydropyrimidin-1-yl)propyl]benzonitrile]	10 to 100 nM
CCCCc1nc(=O)c(S(=O)(=O)c2ccc(-c3ccc(C(C)(C)O)cc3)cc2)c(O)n1[C@@H](CC)c1cccc(C#N)c1 [Example 532, 3-[(1S)-1-(2-butyl-6-hydroxy-5-{[4′-(2-hydroxypropan-2-yl)-[1,1′-biphenyl]-4-yl]sulfonyl}-4-oxo-1,4-dihydropyrimidin-1-yl)propyl]benzonitrile]	10 to 100 nM
CCCCc1nc(=O)c(S(=O)(=O)c2ccc(-c3ccccc3C(=O)NC3CC3)cc2)c(O)n1[C@H](c1cccc(C#N)c1)C1CC1 [Example 533, 4′-({2-butyl-1-[(S)-(3-cyanophenyl)(cyclopropyl)methyl]-6-hydroxy-4-oxo-1,4-dihydropyrimidin-5-yl}sulfonyl)-N-cyclopropyl-[1,1′-biphenyl]-2-carboxamide]	0.01 to 10 nM
CCCCc1nc(=O)c(S(=O)(=O)c2ccc(-c3cccc(C(=O)NC4CC4)c3F)cc2)c(O)n1[C@@H](CC)c1cccc(C#N)c1 [Example 534, 4′-({2-butyl-1-[(1S)-1-(3-cyanophenyl)propyl]-6-hydroxy-4-oxo-1,4-dihydropyrimidin-5-yl}sulfonyl)-N-cyclopropyl-2-fluoro-[1,1′-biphenyl]-3-carboxamide]	0.01 to 10 nM
CCCCc1nc(=O)c(S(=O)(=O)c2ccc(-c3cccc4c3CNC4=O)cc2)c(O)n1[C@@H](CC)c1cccc(C#N)c1 [Example 535, 3-[(1S)-1-{2-butyl-6-hydroxy-4-oxo-5-[4-(1-oxo-2,3-dihydro-1H-isoindol-4-yl)benzenesulfonyl]-1,4-dihydropyrimidin-1-yl}propyl]benzonitrile]	0.01 to 10 nM
CCCCc1nc(=O)c(S(=O)(=O)c2ccc(-c3cc(F)ncc3C)cc2)c(O)n1[C@@H](CC)c1cccc(C#N)c1 [Example 536, 3-[(1S)-1-{2-butyl-5-[4-(2-fluoro-5-methylpyridin-4-yl)benzenesulfonyl]-6-hydroxy-4-oxo-1,4-dihydropyrimidin-1-yl}propyl]benzonitriIe]	0.01 to 10 nM

Results, then the compound that gave them:

EC50	Structure (SMILES)
0.01 to 10 nM	CCCCc1nc(=O)c(S(=O)(=O)c2ccc(-c3ccccc3F)cc2)c(O)n1[C@@H](CC)c1cccc(C#N)c1 [Example 511, 3-[(1S)-1-[2-butyl-5-({2′-fluoro-[1,1′-biphenyl]-4-yl}sulfonyl)-6-hydroxy-4-oxo-1,4-dihydropyrimidin-1-yl]propyl]benzonitrile]
0.01 to 10 nM	CCCCc1nc(=O)c(S(=O)(=O)c2ccc(-c3ccncc3F)cc2)c(O)n1[C@@H](CC)c1cccc(C#N)c1 [Example 512, 3-[(1S)-1-{2-butyl-5-[4-(3-fluoropyridin-4-yI)benzenesulfonyl]-6-hydroxy-4-oxo-1,4-dihydropyrimidin-1-yl}propyl]benzonitrile]
0.01 to 10 nM	CCCCc1nc(=O)c(S(=O)(=O)c2ccc(-c3ccccc3C(=O)N(C)C)cc2)c(O)n1[C@@H](CC)c1cccc(C#N)c1 [Example 513, 4′-({2-butyl-1-[(1S)-1-(3-cyanophenyl)propyl]-6-hydroxy-4-oxo-1,4-dihydropyrimidin-5-yl}sulfonyl)-N,N-dimethyl-[1,1′-biphenyl]-2-carboxamide]
0.01 to 10 nM	CCCCc1nc(=O)c(S(=O)(=O)c2ccc(-c3ccc(F)cc3C(N)=O)cc2)c(O)n1[C@@H](CC)c1ccc(C#N)c(F)c1 [Example 514, 4′-({2-butyl-1-[(1S)-1-(4-cyano-3-fluorophenyl)propyl]-6-hydroxy-4-oxo-1,4-dihydropyrimidin-5-yl}sulfonyl)-4-fluoro-[1,1′-biphenyl]-2-carboxamide]
0.01 to 10 nM	CCCCc1nc(=O)c(S(=O)(=O)c2ccc(-c3cccnc3C)cc2)c(O)n1[C@@H](CC)c1ccc(C#N)c(F)c1 [Example 515, 4-[(1S)-1-{2-butyl-6-hydroxy-5-[4-(2-methylpyridin-3-yl)benzenesulfonyl]-4-oxo-1,4-dihydropyrimidin-1-yl}propyl]-2-fluorobenzonitrile]
0.01 to 10 nM	CCCCc1nc(=O)c(S(=O)(=O)c2ccc(-c3ccncc3C)cc2)c(O)n1[C@@H](CC)c1ccc(C#N)c(F)c1 [Example 516, 4-[(1S)-1-{2-butyl-6-hydroxy-5-[4-(3-methylpyridin-4-yl)benzenesulfonyl]-4-oxo-1,4-dihydropyrimidin-1-yl}propyl]-2-fluorobenzonitrile]
0.01 to 10 nM	CCCCc1nc(=O)c(S(=O)(=O)c2ccc(-c3ccnc(F)c3C)cc2)c(O)n1[C@@H](CC)c1ccc(C#N)c(F)c1 [Example 517, 4-[(1S)-1-{2-butyl-5-[4-(2-fluoro-3-methylpyridin-4-yl)benzenesulfonyl]-6-hydroxy-4-oxo-1,4-dihydropyrimidin-1-yl}propyl]-2-fluorobenzonitrile]
0.01 to 10 nM	CCCCc1nc(=O)c(S(=O)(=O)c2ccc(-c3cccn(C)c3=O)cc2)c(O)n1[C@@H](CC)c1ccc(C#N)c(F)c1 [Example 518, 4-[(1S)-1-{2-butyl-6-hydroxy-5-[4-(1-methyl-2-oxo-1,2-dihydropyridin-3-yl)benzenesulfonyl]-4-oxo-1,4-dihydropyrimidin-1-yl}propyl]-2-fluorobenzonitrile]
0.01 to 10 nM	CCCCc1nc(=O)c(S(=O)(=O)c2ccc(-c3ccc(F)nc3C)cc2)c(O)n1[C@@H](CC)c1ccc(C#N)c(F)c1 [Example 519, 4-[(1S)-1-{2-butyl-5-[4-(6-fluoro-2-methylpyridin-3-yl)benzenesulfonyl]-6-hydroxy-4-oxo-1,4-dihydropyrimidin-1-yl}propyl]-2-fluorobenzonitrile]
0.01 to 10 nM	CCCCc1nc(=O)c(S(=O)(=O)c2ccc(-c3ccccc3C(=O)NC)cc2)c(O)n1[C@@H](CC)c1ccc(C#N)c(F)c1 [Example 520, 4′-({2-butyl-1-[(1S)-1-(4-cyano-3-fluorophenyl)propyl]-6-hydroxy-4-oxo-1,4-dihydropyrimidin-5-yl}sulfonyl)-N-methyl-[1,1′-biphenyl]-2-carboxamide]
0.01 to 10 nM	CCCCc1nc(=O)c(S(=O)(=O)c2ccc(-c3ccccc3C(=O)N(C)C)cc2)c(O)n1[C@@H](CC)c1ccc(C#N)c(F)c1 [Example 521, 4′-({2-butyl-1-[(1S)-1-(4-cyano-3-fluorophenyl)propyl]-6-hydroxy-4-oxo-1,4-dihydropyrimidin-5-yl}sulfonyl)-N,N-dimethyl-[1,1′-biphenyl]-2-carboxamide]
